The target in the test is T1, recombinant human GR (Homo sapiens, UniProt P04150).
T1 construct: purchased Panvera/Invitrogen P2812 (kit P2893)
T1 sequence (P04150 1-777): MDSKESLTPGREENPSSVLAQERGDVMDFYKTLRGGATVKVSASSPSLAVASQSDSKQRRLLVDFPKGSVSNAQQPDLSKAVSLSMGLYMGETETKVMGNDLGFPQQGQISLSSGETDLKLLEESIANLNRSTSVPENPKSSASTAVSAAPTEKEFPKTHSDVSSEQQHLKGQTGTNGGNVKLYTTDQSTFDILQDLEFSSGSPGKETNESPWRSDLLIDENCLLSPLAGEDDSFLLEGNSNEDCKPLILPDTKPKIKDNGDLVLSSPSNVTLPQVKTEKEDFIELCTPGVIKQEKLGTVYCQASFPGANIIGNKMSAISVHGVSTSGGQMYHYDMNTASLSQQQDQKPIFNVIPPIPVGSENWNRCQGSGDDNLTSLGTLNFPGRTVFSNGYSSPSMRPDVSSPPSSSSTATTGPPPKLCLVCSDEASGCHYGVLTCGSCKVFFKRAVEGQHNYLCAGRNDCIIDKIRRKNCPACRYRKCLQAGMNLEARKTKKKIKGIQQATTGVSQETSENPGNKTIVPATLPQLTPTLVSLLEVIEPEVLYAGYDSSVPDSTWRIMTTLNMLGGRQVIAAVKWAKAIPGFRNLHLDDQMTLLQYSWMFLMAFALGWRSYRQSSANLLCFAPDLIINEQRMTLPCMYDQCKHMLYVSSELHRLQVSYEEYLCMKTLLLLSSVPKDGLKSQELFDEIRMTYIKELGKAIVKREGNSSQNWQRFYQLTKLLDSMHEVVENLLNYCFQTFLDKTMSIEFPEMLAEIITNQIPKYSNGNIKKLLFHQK
Description: Human Glucocorticoid Receptor (GR) Assay (fluorescence polarization, Panvera/Invitrogen kit). Type of test: binding. As to conditions: fluorescence polarization; GS Red tracer; 2 hours at room temperature; 100% control 10 μM Dexamethasone; read-out: Inhibition of GR binding, IC50. The procedure, abridged: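 Fluorescence polarization competition with recombinant GR and GS Red fluorescent ligand plus stabilizing peptide and DTT in potassium phosphate/sodium molybdate/EDTA buffer with DMSO. Incubated 2 hours at room temperature in the dark; 0% control DMSO, 100% control 10 μM dexamethasone.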
For orientation: In fluorescence polarisation assays a small probe gives low polarisation when free and higher when bound to something large.

Our source for the IC50 values is patent publication US8163724B2, “Glucocorticosteroids, processes for their preparation, pharmaceutical compositions containing them and their use in therapy” (AstraZeneca AB, priority 2007, dated 2012).

Consider `C=CCSC(=O)[C@@]1(OC(=O)CC)CC[C@H]2[C@@H]3CCC4=Cc5c(cnn5-c5ccc(F)cc5)C[C@]4(C)[C@H]3[C@@H](O)C[C@@]21C` [Example 23, (1R,3aS,3bS,10aR,10bS,11S,12aS)-7-(4-Fluorophenyl)-11-hydroxy-10a,12a-dimethyl-1-[(prop-2-en-1-ylthio)carbonyl]-1,2,3,3a,3b,4,5,7,10,10a,10b,11,12,12a-tetradecahydropcyclopenta[5,6]naphtho[1,2-f]indazol-1-yl propanoate], for which the half-inhibitory concentration (IC50) (commonly the concentration needed to halve the response being measured) came out at 13 nM. `C[C@]12Cc3cnn(-c4ccc(F)nc4)c3C=C1CC[C@@H]1[C@@H]2[C@@H](O)C[C@@]2(C)[C@H]1CC[C@]2(OC(=O)c1ccco1)C(=O)SCCO` [Example 168, (1R,3aS,3bS,10aR,10bS,11S,12aS)-7-(6-Fluoropyridin-3-yl)-11-hydroxy-1-{[(2-hydroxyethyl)sulfanyl]carbonyl}-10a,12a-dimethyl-1,2,3,3a,3b,4,5,7,10,10a,10b,11,12,12a-tetradecahydrocyclopenta[5,6]naphtho[1,2-f]indazol-1-yl furan-2-carboxylate]: the IC50 came to 5.3 nM. `C[C@]12Cc3cnn(-c4ccc(F)cc4)c3C=C1CC[C@@H]1[C@@H]2[C@@H](O)C[C@@]2(C)[C@H]1CC[C@]2(OC(=O)c1cccs1)C(=O)SCC#N` [Example 115, (1R,3aS,3bS,10aR,10bS,11S,12aS)-1-{[(Cyanomethyl)sulfanyl]carbonyl}-7-(4-fluorophenyl)-11-hydroxy-10a,12a-dimethyl-1,2,3,3a,3b,4,5,7,10,10a,10b,11,12,12a-tetradecahydrocyclopenta[5,6]naphtho[1,2-f]indazol-1-yl thiophene-2-carboxylate]: the half-maximal inhibitory concentration (IC50) was found to be 10 nM. Consider `CCC(=O)O[C@]1(C(=O)SCC2CC2)CC[C@H]2[C@@H]3CCC4=Cc5c(cnn5-c5ccc(F)cc5)C[C@]4(C)[C@H]3[C@@H](O)C[C@@]21C` [Example 25, (1R,3aS,3bS,10aR,10bS,11S,12aS)-1-{[(Cyclopropylmethyl)thio]carbonyl}-7-(4-fluorophenyl)-11-hydroxy-10a,12a-dimethyl-1,2,3,3a,3b,4,5,7,10,10a,10b,11,12,12a-tetradecahydrocyclopenta[5,6]naphtho[1,2-f]indazol-1-yl propanoate], for which the IC50 stood at 10 nM. As for `C[C@]12Cc3cnn(-c4ccc(F)cc4)c3C=C1CC[C@@H]1[C@@H]2[C@@H](O)C[C@@]2(C)[C@H]1CC[C@]2(OC(=O)c1ccco1)C(=O)SCSC#N` [Example 83, (1R,3aS,3bS,10aR,10bS,11S,12aS)-7-(4-Fluorophenyl)-11-hydroxy-10a,12a-dimethyl-1-{[(thiocyanatomethyl)sulfanyl]carbonyl}-1,2,3,3a,3b,4,5,7,10,10a,10b,11,12,12a-tetradecahydrocyclopenta[5,6]naphtho[1,2-f]indazol-1-yl furan-2-carboxylate], the figure is 18 nM; as for `C[C@]12Cc3cnn(-c4ccc(F)c(CO)c4)c3C=C1CC[C@@H]1[C@@H]2[C@@H](O)C[C@@]2(C)[C@H]1CC[C@]2(OC(=O)C1CC1)C(=O)SCC#N` [Example 144, (1R,3aS,3bS,10aR,10bS,11S,12aS)-1-{[(Cyanomethyl)sulfanyl]carbonyl}-7-[4-fluoro-3-(hydroxymethyl)phenyl-]-11-hydroxy-10a,12a-dimethyl-1,2,3,3a,3b, 4,5,7,10,10a,11,12,12a-tetradecahydrocyclopenta[5,6]naphtho[1,2-f]indazol-1-yl Cyclopropanecarboxylate], 3.8 nM; as for `C[C@]12Cc3cnn(-c4ccc(F)cc4)c3C=C1CC[C@@H]1[C@@H]2[C@@H](O)C[C@@]2(C)[C@H]1CC[C@]2(OC(=O)c1ccco1)C(=O)SCCO` [Example 91, (1R,3aS,3bS,10aR,10bS,11S,12aS)-7-(4-fluorophenyl)-11-hydroxy-1-{[(2-hydroxyethyl)sulfanyl]carbonyl}-10a,12a-dimethyl-1,2,3,3a,3b,4,5,7,10,10a,10b,11,12,12a-tetradecahydrocyclopenta[5,6]naphtho[1,2-f]indazol-1-yl furan-2-carboxylate], 3.7 nM. Under `C[C@]12Cc3cnn(-c4ccc(F)cc4)c3C=C1CC[C@@H]1[C@@H]2[C@@H](O)C[C@@]2(C)[C@H]1CC[C@]2(OC(=O)c1ccco1)C(=O)SCCCO` [Example 92, (1R,3aS,3bS,10aR,10bS,11S,12aS)-7-(4-Fluorophenyl)-11-hydroxy-1-{[(3-hydroxypropyl)sulfanyl]carbonyl}-10a,12a-dimethyl-1,2,3,3a,3b,4,5,7,10,10a,10b,11,12,12a-tetradecahydrocyclopenta[5,6]naphtho[1,2-f]indazol-1-yl furan-2-carboxylate] stands 4 nM; under `CCC(=O)O[C@]1(C(=O)SCC#CCO)CC[C@H]2[C@@H]3CCC4=Cc5c(cnn5-c5ccc(F)cc5)C[C@]4(C)[C@H]3[C@@H](O)C[C@@]21C` [Example 18, (1R,3aS,3bS,10aR,10bS,11S,12aS)-7-(4-Fluorophenyl)-11-hydroxy-1-{[(4-hydroxy-but-2-yn-1-yl)thio]carbonyl}-10a,12a-dimethyl-1,2,3,3a,3b,4,5,7,10,10a,10b,11,12,12a-tetradecahydrocyclopenta[5,6]naphtho[1,2-f]indazol-1-yl propanoate], 4.1 nM. Regarding `C[C@]12Cc3cnn(-c4ccccn4)c3C=C1CC[C@@H]1[C@@H]2[C@@H](O)C[C@@]2(C)[C@H]1CC[C@]2(OC(=O)C1CC1)C(=O)SCF` [Example 149, (1R,3aS,3bS,10aR,10bS,11S,12aS)-1-{[(Fluoromethyl)sulfanyl]carbonyl}-11-hydroxy-10a,12a-dimethyl-7-pyridin-2-yl-1,2,3,3a,3b,4,5,7,10,10a,10b,11,12,12a-tetradecahydrocyclopenta[5,6]naphtho[1,2-f]indazol-1-yl cyclopropane Carboxylate], the IC50 worked out at 5 nM.

Turning to `CC(=O)O[C@]1(C(=O)SCC#N)CC[C@H]2[C@@H]3CCC4=Cc5c(cnn5-c5ccc(F)cc5)C[C@]4(C)[C@H]3[C@@H](O)C[C@@]21C` [Example 109, (1R,3aS,3bS,10aR,10bS,11S,12aS)-1-{[(Cyanomethyl)sulfanyl]carbonyl}-7-(4-fluorophenyl)-11-hydroxy-10a,12a-dimethyl-1,2,3,3a,3b,4,5,7,10,10a,10b,11,12,12a-tetradecahydrocyclopenta[5,6]naphtho[1,2-f]indazol-1-yl acetate], the half-maximal inhibitory concentration (IC50) was 4.1 nM. For `CSCOC(=O)[C@@]1(OC(C)=O)CC[C@H]2[C@@H]3CCC4=Cc5c(cnn5-c5ccc(F)cc5)C[C@]4(C)[C@H]3[C@@H](O)C[C@@]21C` [Example 119, (Methylsulfanyl)methyl(1R,3aS,3bS,10aR,10bS,11S,12aS)-1-(acetyloxy)-7-(4-fluorophenyl)-11-hydroxy-10a,12a-dimethyl-1,2,3,3a,3b,4,5,7,10,10a,10b,11,12,12a-tetradecahydrocyclopenta[5,6]naphtho[1,2-f]indazole-1-carboxylate], the concentration for half-maximal inhibition (IC50) stood at 4.6 nM.
